The values that follow come from ChEMBL document CHEMBL1649320, “Development of daptomycin nonsusceptibility with heterogeneous vancomycin-intermediate resistance and oxacillin susceptibility in methicillin-resistant Staphylococcus aureus during high-dose daptomycin treatment” (2010).

In general, MIC refers to the lowest concentration found to suppress growth. The low end stands for inhibition by little substance, the high end for a need for much substance.

The structures appear in SMILES notation. Values after ≈ are worked out from the molar mass of the structure shown. Bounds are passed on as bounds.

What all share (type): functional
The test system of assay [1] is Staphylococcus aureus. In words: Antimicrobial activity against methicillin-resistant Staphylococcus aureus CGK7 by Etest method.
Assay [2] deals with Staphylococcus aureus. In words: Antimicrobial activity against methicillin-resistant Staphylococcus aureus CGK1 by Etest method.
Assay [3] relates to Staphylococcus aureus. Description: Antimicrobial activity against methicillin-resistant Staphylococcus aureus CGK4 by Etest method.
Assay [4] relates to Staphylococcus aureus. Description: Antimicrobial activity against methicillin-resistant Staphylococcus aureus CGK3 by Etest method.
Assay [5] deals with Staphylococcus aureus. In words: Antimicrobial activity against methicillin-resistant Staphylococcus aureus CGK2 by Etest method.
Assay [6] relates to Staphylococcus aureus. In words: Antimicrobial activity against methicillin-resistant Staphylococcus aureus CGK5 by Etest method.
For assay [7], the system named is Staphylococcus aureus. Description: Antimicrobial activity against methicillin-resistant Staphylococcus aureus CGK8 by Etest method.
In assay [8] the test system is Staphylococcus aureus. Description: Antimicrobial activity against methicillin-resistant Staphylococcus aureus CGK6 by Etest method.

As to `CC(=O)N[C@@H]1[C@H](Oc2c3cc4cc2Oc2ccc(cc2Cl)[C@@H](O[C@@H]2O[C@@H](CO)[C@@H](O)[C@H](O)[C@@H]2NC(C)=O)[C@@H]2NC(=O)[C@H](NC(=O)[C@@H]4NC(=O)[C@H]4NC(=O)[C@@H](Cc5ccc(c(Cl)c5)O3)NC(=O)[C@H](N)c3ccc(O)c(c3)Oc3cc(O)cc4c3)c3ccc(O)c(c3)-c3c(O[C@H]4O[C@H](CO)[C@@H](O)[C@@H](O)[C@@H]4O)cc(O)cc3[C@@H](C(=O)O)NC2=O)O[C@@H](CO)[C@@H](O)[C@@H]1O`, the MIC stood at 3 µg/mL (≈ 1.7 µM) with Staphylococcus aureus [1]; 1 µg/mL (≈ 0.566 µM) in the assay on Staphylococcus aureus [2]; 1 µg/mL (≈ 0.566 µM) in the assay on Staphylococcus aureus [3]; 1.5 µg/mL (≈ 0.849 µM) against Staphylococcus aureus [4]; 1.5 µg/mL (≈ 0.849 µM) against Staphylococcus aureus [5]; 2 µg/mL (≈ 1.13 µM) against Staphylococcus aureus [6]. The MIC with Staphylococcus aureus [7] and in the assay with Staphylococcus aureus [8] was 2 µg/mL (≈ 1.13 µM) in each case.
In the case of `CCCCCCCCCC(=O)N[C@@H](Cc1c[nH]c2ccccc12)C(=O)N[C@H](CC(N)=O)C(=O)N[C@@H](CC(=O)O)C(=O)N[C@@H]1C(=O)NCC(=O)N[C@@H](CCCN)C(=O)N[C@@H](CC(=O)O)C(=O)N[C@H](C)C(=O)N[C@@H](CC(=O)O)C(=O)NCC(=O)N[C@H](CO)C(=O)N[C@@H]([C@H](C)CC(=O)O)C(=O)N[C@@H](CC(=O)c2ccccc2N)C(=O)O[C@@H]1C`, the MIC with Staphylococcus aureus [1] came out at 4 µg/mL (≈ 2.47 µM); with Staphylococcus aureus [2], 0.5 µg/mL (≈ 0.309 µM); in the assay with Staphylococcus aureus [3], 0.38 µg/mL (≈ 0.234 µM); against Staphylococcus aureus [4], 0.75 µg/mL (≈ 0.463 µM); against Staphylococcus aureus [5], 0.75 µg/mL (≈ 0.463 µM); against Staphylococcus aureus [6] it was 0.75 µg/mL (≈ 0.463 µM). Moreover, the minimum inhibitory concentration (MIC) against Staphylococcus aureus [7] and against Staphylococcus aureus [8] was 4 µg/mL (≈ 2.47 µM) in each case.
Consider `CC(=O)NC[C@H]1CN(c2ccc(N3CCOCC3)c(F)c2)C(=O)O1` [LINEZOLID], for which the MIC against Staphylococcus aureus [7] amounted to 1.5 µg/mL (≈ 4.45 µM); against Staphylococcus aureus [8], 1 µg/mL (≈ 2.96 µM).
`Cc1onc(-c2ccccc2)c1C(=O)N[C@@H]1C(=O)N2[C@@H]1SC(C)(C)[C@@H]2C(=O)O` [OXACILLIN]: the MIC was 3 µg/mL (≈ 7.47 µM) against Staphylococcus aureus [1]; 32 µg/mL (≈ 79.7 µM) with Staphylococcus aureus [2]; 16 µg/mL (≈ 39.9 µM) in the assay on Staphylococcus aureus [3]; over 256 µg/mL against Staphylococcus aureus [4]; over 256 µg/mL with Staphylococcus aureus [5]; over 256 µg/mL against Staphylococcus aureus [6]. The MIC with Staphylococcus aureus [7] amounted to 1 µg/mL (≈ 2.49 µM); against Staphylococcus aureus [8] it was 1.5 µg/mL (≈ 3.74 µM).
On to `CN[C@H](CC(C)C)C(=O)N[C@H]1C(=O)N[C@@H](CC(N)=O)C(=O)N[C@H]2C(=O)N[C@H]3C(=O)N[C@H](C(=O)N[C@H](C(=O)O)c4cc(O)cc(O)c4-c4cc3ccc4O)[C@H](O)c3ccc(c(Cl)c3)Oc3cc2cc(c3O[C@@H]2O[C@H](CO)[C@@H](O)[C@H](O)[C@H]2O[C@H]2C[C@](C)(N)[C@H](O)[C@H](C)O2)Oc2ccc(cc2Cl)[C@H]1O` [VANCOMYCIN], for which the MIC against Staphylococcus aureus [1] was 3 µg/mL (≈ 2.07 µM); against Staphylococcus aureus [2], 1.5 µg/mL (≈ 1.04 µM); in the assay with Staphylococcus aureus [3], 1.5 µg/mL (≈ 1.04 µM); in the assay with Staphylococcus aureus [5], 1.5 µg/mL (≈ 1.04 µM).
